Experimental data from article PMC4105438, “Novel Benzoxazine-Based Aglycones Block Glucose Uptake In Vivo by Inhibiting Glycosidases” (PLoS ONE, 2014).

Assays:
[1] = tested on: overnight fasted Wistar rats; assay: Oral maltose tolerance test; format: in vivo, rat
Text: (§1) Adult Wistar rats weighing 150–180 g were collected from the University Central Animal Facility and housed under a controlled environment. All animal experiments were approved by the Institutional Animal Ethical Committee (Order No : MGZ/2620/2011-12 Dated 31-01-2012; UOM/IAEC/18/2011), Department of Studies in Zoology, University of Mysore, Mysore and were in accordance with the guidelines of the Committee for the Purpose of Control and Supervision of Experiments on Animals (CPCSEA).
(§2) The experimental animals were randomly divided into 11 groups each consisting of 5 rats. […] Blood was collected from the tail vein to the tubes containing anticoagulant (2.5% trisodium citrate and 1.37% citric acid in the ratio 1∶5; anti-coagulant: blood) at time point 0 (just before sucrose/maltose administration), and subsequently at 30, 60, 90, 120 and 180 min after substrate (sucrose/maltose) administration. Plasma was separated by centrifuging the samples at 2000 rpm for 10 min and stored at −20°C until analysis. Plasma glucose concentration was determined by using the Glucose oxidase (GOD POD) kit according to the manufacturer’s protocol.

porcine diaphragm = assay: Glucose uptake study in porcine diaphragm; conditions: 50 and 100 µM, with and without insulin (1 U), 5 mM glucose
Protocol: Porcine diaphragm was purchased from a slaughter house, and cleaned using ice cold 0.9% saline several times to remove blood stains. This diaphragm was used for glucose uptake and inhibition by compound 7. Diaphragm (100 mg) was suspended in a 24 well culture plate containing 500 µL saline. In order to initiate the reaction, 5 mM glucose was added to each well. To enhance the glucose uptake by the diaphragm, 1 unit of insulin was used in each well, and the volume was made up to 1 ml with saline. For inhibition studies, compound 7 at a concentration of 50 & 100 µM was used. From each well 100 µL of the assay mixture was aspirated at different time intervals (0, 5, 10, 20, 30 and 60 min). From this, glucose concentration was measured using Glucose oxidase (GOD POD) kit according to the manufacturer’s protocol.

[2] = target: T1, Porcine pancreatic α-amylase (Sus scrofa, UniProt P00690); assay: α-amylase inhibition assay (starch, DNS reagent); format: biochemical; conditions: 0–100 µM, pre-incubation 10 min 37°C, pH 6.9; NS = not significant
T1 construct: purchased SRL, Mumbai (India)
T1 sequence (P00690 16-511): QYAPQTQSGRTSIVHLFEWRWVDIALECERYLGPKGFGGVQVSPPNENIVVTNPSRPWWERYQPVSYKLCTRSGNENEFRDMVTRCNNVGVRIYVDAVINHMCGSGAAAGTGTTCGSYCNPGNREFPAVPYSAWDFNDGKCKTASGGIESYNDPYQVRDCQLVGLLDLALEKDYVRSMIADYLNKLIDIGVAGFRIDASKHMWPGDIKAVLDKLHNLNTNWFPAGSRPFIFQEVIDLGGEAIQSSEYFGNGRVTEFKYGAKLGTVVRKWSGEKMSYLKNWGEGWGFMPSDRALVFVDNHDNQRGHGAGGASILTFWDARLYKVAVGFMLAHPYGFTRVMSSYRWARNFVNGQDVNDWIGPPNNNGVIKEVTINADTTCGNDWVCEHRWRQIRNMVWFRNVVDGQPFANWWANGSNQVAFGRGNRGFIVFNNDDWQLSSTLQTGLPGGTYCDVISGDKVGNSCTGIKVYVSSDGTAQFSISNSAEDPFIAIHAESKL
Protocol: Porcine pancreatic α-Amylase and Yeast α-Glucosidase were purchased from SRL, Mumbai (India). Glucose oxidase (GOD POD) kit was purchased from Piramal HealthCare Ltd, Mumbai (India). All other chemicals used were of analytical grade and purchased from Sigma Aldrich, St. Louis (USA) and SRL, Mumbai (India). […] Mass spectra were determined on a Shimadzu LC-MS. The elemental analyses were carried out using an Elemental Vario Cube CHNS rapid Analyzer. The progress of the reaction was monitored by TLC pre-coated silica gel G plates.
The α-amylase inhibition assay was performed according to a previous report. Porcine pancreatic α-amylase (3 units/mL) was dissolved in 0.1 M phosphate buffered saline, pH 6.9. […] The reaction was initiated by adding substrate solution (0.1% starch) to the incubation medium. After 10 min incubation, the reaction was stopped by adding 250 µL dinitrosalicylic (DNS) reagent (1% 3, 5-dinitrosalicylic acid, 0.2% phenol, 0.05% Na2SO3 and 1% NaOH in aqueous solution) to the reaction mixture. The reaction was terminated by keeping the reaction mixture in boiling water bath for 10 min. Thereafter, 250 µL of 40% potassium sodium tartarate solution was added to the mixtures to stabilize the colour. After cooling to room temperature in a cold water bath, the absorbance was recorded at 540 nm using a Varioskan multimode plate reader (Thermo Scientifics, USA). Acrabose was used as positive control. The percentage of inhibition was calculated using Abs Contol – Abs Sample ×100/Abs Control. Where Abs Control was the absorbance without sample, Abs sample was the absorbance of enzyme with compound.

rat intestinal maltase = assay: Intestinal α-glucosidase inhibitory assay, maltose as substrate; format: biochemical
Protocol: (§3) Intestinal α-glucosidase activity was determined by measuring the amount of glucose hydrolyzed from maltose or sucrose. Briefly, rat intestinal acetone powder was homogenized in 0.9% saline and the suspension was centrifuged at 10,000 g for 30 min at 4°C and the supernatant obtained was used as enzyme source. […] After the respective incubation period, reaction was terminated by keeping the samples in boiling water bath for 10 min. The concentration of glucose released from the reaction mixtures was determined by using Glucose oxidase (GOD POD) kit according to the manufacturer’s protocol. Results were expressed as percentage inhibition of intestinal maltase/sucrase activity.

[3] = tested on: overnight fasted Wistar rats; assay: Oral sucrose tolerance test; format: in vivo, rat
Text: as §1, §2

rat intestinal sucrase = target: T2, rat intestinal sucrase (Rattus norvegicus, UniProt P23739); assay: Intestinal α-glucosidase inhibitory assay, sucrose as substrate; format: biochemical
T2 construct: the supernatant obtained was used as enzyme source; tissue Sigma Aldrich, St. Louis (USA); host or cells: rat intestinal acetone powder (supernatant of the saline homogenate)
T2 sequence (P23739 whole entry): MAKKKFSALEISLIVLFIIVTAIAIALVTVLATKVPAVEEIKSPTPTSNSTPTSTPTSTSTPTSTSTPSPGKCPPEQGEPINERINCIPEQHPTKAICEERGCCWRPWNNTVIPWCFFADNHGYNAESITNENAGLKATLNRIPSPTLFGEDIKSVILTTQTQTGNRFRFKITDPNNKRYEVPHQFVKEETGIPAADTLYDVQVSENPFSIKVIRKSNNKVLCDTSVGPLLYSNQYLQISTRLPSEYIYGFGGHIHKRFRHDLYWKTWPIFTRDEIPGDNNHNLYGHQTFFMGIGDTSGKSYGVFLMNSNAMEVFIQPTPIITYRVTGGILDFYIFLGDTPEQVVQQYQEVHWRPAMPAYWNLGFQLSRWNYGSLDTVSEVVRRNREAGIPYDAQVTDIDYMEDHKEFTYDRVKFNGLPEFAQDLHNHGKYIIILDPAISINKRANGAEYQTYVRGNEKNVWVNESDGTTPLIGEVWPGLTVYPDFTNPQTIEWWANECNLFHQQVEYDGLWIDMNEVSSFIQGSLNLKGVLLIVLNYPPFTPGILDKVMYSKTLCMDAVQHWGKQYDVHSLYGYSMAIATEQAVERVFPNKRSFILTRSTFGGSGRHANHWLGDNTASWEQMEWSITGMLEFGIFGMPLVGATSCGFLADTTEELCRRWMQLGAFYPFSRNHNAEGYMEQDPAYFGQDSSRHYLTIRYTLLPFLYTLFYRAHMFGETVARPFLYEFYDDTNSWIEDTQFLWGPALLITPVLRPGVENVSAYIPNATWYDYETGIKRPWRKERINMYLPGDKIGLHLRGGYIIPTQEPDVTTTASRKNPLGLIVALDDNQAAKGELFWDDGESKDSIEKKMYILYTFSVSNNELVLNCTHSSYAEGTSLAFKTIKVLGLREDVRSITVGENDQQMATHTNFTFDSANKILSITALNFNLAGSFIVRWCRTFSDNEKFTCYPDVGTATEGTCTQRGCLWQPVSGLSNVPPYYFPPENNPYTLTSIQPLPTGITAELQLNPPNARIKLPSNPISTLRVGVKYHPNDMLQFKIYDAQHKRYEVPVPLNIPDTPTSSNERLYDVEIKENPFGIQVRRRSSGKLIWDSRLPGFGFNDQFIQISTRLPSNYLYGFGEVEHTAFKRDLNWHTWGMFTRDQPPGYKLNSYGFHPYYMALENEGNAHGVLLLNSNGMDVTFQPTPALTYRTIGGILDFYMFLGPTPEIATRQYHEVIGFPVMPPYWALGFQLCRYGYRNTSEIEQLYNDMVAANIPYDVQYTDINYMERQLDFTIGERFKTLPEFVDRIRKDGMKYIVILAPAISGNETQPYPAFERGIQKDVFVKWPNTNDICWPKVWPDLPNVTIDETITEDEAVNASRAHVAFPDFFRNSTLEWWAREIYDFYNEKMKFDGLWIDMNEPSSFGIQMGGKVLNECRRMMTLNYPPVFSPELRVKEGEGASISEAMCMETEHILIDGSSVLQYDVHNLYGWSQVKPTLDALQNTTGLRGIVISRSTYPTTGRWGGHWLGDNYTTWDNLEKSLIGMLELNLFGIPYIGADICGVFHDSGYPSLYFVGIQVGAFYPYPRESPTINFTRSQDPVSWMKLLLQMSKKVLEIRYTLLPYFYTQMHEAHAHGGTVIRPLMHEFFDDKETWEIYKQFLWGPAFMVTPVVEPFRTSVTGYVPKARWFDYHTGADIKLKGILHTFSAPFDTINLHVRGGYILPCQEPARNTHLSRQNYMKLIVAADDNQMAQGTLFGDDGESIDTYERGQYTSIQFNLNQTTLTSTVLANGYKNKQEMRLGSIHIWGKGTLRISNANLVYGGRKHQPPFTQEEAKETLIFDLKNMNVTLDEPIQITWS
Protocol: as §3

α-Glucosidase = target: T3, α-Glucosidase (Saccharomyces cerevisiae, UniProt P53341); assay: biochemical; conditions: 0–100 µM, pre-incubation 10 min 37°C, pH 6.9; NS = not significant
T3 construct: purchased SRL, Mumbai (India)
T3 sequence (P53341 whole entry): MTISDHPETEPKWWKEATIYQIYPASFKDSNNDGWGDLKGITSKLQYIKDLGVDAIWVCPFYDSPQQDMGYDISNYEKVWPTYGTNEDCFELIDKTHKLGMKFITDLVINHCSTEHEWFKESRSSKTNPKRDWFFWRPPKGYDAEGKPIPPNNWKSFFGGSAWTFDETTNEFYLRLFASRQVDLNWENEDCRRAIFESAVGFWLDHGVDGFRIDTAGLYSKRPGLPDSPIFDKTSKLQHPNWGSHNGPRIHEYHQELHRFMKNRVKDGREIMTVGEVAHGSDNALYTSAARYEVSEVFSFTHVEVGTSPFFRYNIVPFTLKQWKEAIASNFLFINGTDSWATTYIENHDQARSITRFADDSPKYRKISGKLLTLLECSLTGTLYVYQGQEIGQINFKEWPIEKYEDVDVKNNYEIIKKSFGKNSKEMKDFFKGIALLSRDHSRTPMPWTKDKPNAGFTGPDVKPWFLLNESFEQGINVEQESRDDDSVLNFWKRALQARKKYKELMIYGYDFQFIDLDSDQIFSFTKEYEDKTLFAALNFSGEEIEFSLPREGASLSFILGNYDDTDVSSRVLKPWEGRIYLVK
Protocol: Porcine pancreatic α-Amylase and Yeast α-Glucosidase were purchased from SRL, Mumbai (India). Glucose oxidase (GOD POD) kit was purchased from Piramal HealthCare Ltd, Mumbai (India). All other chemicals used were of analytical grade and purchased from Sigma Aldrich, St. Louis (USA) and SRL, Mumbai (India). All IR spectra were obtained in KBr disc on a Shimadzu FT-IR 157 Spectrometer. ^1H and ^13C NMR spectra were recorded on a Bruker WH-200 (400 MZ) spectrometer in CDCl3 or DMSO-d6 as solvent, using TMS as an internal standard and chemical shifts are expressed as ppm. Mass spectra were determined on a Shimadzu LC-MS. The elemental analyses were carried out using an Elemental Vario Cube CHNS rapid Analyzer. The progress of the reaction was monitored by TLC pre-coated silica gel G plates.
The α-glucosidase inhibitory activities of synthesized compounds were evaluated using the method developed by Tsujii et al.. Briefly, α-glucosidase was dissolved in phosphate buffer (50 mM, pH 6.9) and pre-treated with various concentrations of 1,3-benzoxazine derivatives (0–100 µM) independently for 10 min at 37°C. The reaction was initiated by the addition of 50 µL of 5 mM p-nitrophenyl- α -D-glucopyranoside solution in phosphate buffer (50 mM, pH 6.9). The enzyme reaction was carried out at 37°C for 30 min. The reaction was terminated by the addition of Na2CO3 (1 M). The enzymatic activity of α-glucosidase was quantified by measuring the absorption at 405 nm using a Varioskan multimode plate reader (Thermo Scientifics, USA). The inhibitory effect of compounds was defined as inhibitory activity (%) = (Abs Control – Abs Compound treated)/Abs Control ×100. Concentration-response assays were used to determine the potency (IC50) of 1,3-benzoxazine derivatives based on the logistic analysis of the concentration-response curve using Microsoft Excel.

For Oc1ccc(C2Nc3cc(Cl)ccc3CO2)cc1 (stereo not shown) [compound 7, 4-(7-chloro-2,4-dihydro-1H-benzo[d][1,3]oxazin-2-yl)phenol], the plasma glucose concentration ([1]; 50 mg/kg oral, maltose 3 g/kg, 90 min, compared to acarbose) was “significantly reduced plasma glucose concentration at the 90 min time point compared to acarbose”, the plasma glucose concentration ([1]; 100 mg/kg oral, maltose 3 g/kg, compared to acarbose standard) was “significantly more effective than the acarbose standard at all time points” and the plasma glucose concentration ([1]; compound 7 50 mg/kg together with acarbose 3 mg/kg, maltose, up to 180 min, compared to saline group) was “plasma glucose concentration remained unchanged when compared to the saline treated group”. For the same molecule, the “glucose uptake by diaphragm” value (porcine diaphragm) was “significantly blocked the glucose uptake both in control and insulin treated diaphragm in a dose-dependent manner”, the IC50 [2] was 11 ± 0.3 µM and the melting point was 139 to 141 °C. The “percentage inhibition of intestinal maltase in presence of acarbose” value (rat intestinal maltase; 5 µM acarbose with compound 7 1–10 µM, compared with intestinal sucrase) was “synergistically inhibited intestinal maltase more efficiently compared to intestinal sucrase”, the “percentage inhibition of intestinal maltase” value (rat intestinal maltase; compound 7 5–25 µM) was “dose-dependent manner” and the IC50 (rat intestinal maltase; rat intestinal acetone powder, maltose 37 mM, 30 min) was 10 µM. The “selectivity for maltase over sucrase” value (rat intestinal maltase; ratio of IC50 values, rat intestinal enzymes) was “two-fold selective for maltase”, the plasma glucose concentration ([3]; 50 mg/kg oral, sucrose 3 g/kg, 0–180 min, compared to acarbose treated group) was “significantly reduced the plasma glucose concentration throughout all time points” and the plasma glucose concentration ([3]; 100 mg/kg oral, sucrose 3 g/kg, compared to acarbose standard) was “significantly more effective than the acarbose standard at all time points”. For the same molecule, the plasma glucose concentration ([3]; compound 7 50 mg/kg together with acarbose 3 mg/kg, sucrose, up to 180 min, compared to saline group) was “plasma glucose concentration remained unchanged when compared to the saline treated group”, the “percentage inhibition of intestinal sucrase” value (rat intestinal sucrase; compound 7 5–25 µM) was “dose-dependent manner” and the IC50 (rat intestinal sucrase; rat intestinal acetone powder, sucrose 56 mM, 60 min) was 20 µM. The IC50 (α-Glucosidase) was 11.5 ± 0.1 µM.
